Data taken from paper PMC2804029 (Journal of medicinal chemistry, 2010).
pIC50: −log10 of the molar value. “Also recorded” adds a separate entry of the source.

Assays:
B. anthracis DHPS [1] = biological target: T1, B. anthracis DHPS (Bacillus anthracis, UniProt Q81VW8); assay: biochemical; type: biochemical
B. anthracis DHPS [2] = biological target: T1, B. anthracis DHPS; type: binding

T1 sequence (Q81VW8 1-280): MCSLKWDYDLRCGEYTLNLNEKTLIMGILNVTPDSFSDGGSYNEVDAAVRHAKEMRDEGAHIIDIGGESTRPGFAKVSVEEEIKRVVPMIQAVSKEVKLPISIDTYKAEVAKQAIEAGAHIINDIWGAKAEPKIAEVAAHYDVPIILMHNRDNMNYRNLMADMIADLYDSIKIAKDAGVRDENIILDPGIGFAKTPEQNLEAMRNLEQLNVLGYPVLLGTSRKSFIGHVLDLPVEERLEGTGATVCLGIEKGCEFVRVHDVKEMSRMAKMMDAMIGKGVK

Nc1nc2[nH]c(S)nc2c(=O)[nH]1 [Compound 5]
percentage inhibition of DHPS (B. anthracis DHPS [1]): did not show inhibition; also recorded: little or no inhibition

Nc1nc2c(c(=O)[nH]1)N=C(CO)CN2 [Control, 6-hydroxymethyl-7,8-dihydropterin]
pIC50 (B. anthracis DHPS [1]): 4.23 | inhibition at 250 µM (B. anthracis DHPS [1]; read-out: B. anthracis % inhibition): 60%

Nc1ccc(C(=O)O)cc1 [pABA, p-aminobenzoic acid]
binding (heats of binding) by ITC (B. anthracis DHPS [2]): does not bind; also recorded: No heats of binding could be detected
